Laboratory results reported in US7109197B2, “N-phenyl-4-(4-pyridyl)-2-pyrimidineamine derivatives” (Syngenta Crop Protection, Inc., priority 2000, dated 2006).

Assays:
Assay type in all cases: in vivo
[1] = test system: Pyrenophora teres (Helminthosporium); test: Assay B-10: Effect against Pyrenophora teres (Helminthosporium)/barley (net blotch on barley); settings: Pyrenophora teres on barley cv. Regina; 0.02% active substance, spray
Description: Assay B-10: Effect Against Pyrenophora teres (Helminthosporium)/Barley (Net Blotch on Barley) 1 week old barley plants cv. Regina are treated with a formulated testcompound (0.02% active substance) in a spray chamber. Two days after application barley plants are inoculated by spraying a spore suspension (3×10^4 conidia/ml) on the test plants. After an incubation period of 2 days at 20° C. and 95% r.h. plants are kept for 2 days at 20° C. and 60% r.h. in a greenhouse. The disease incidence is assessed 4 days after inoculation.

Septoria nodorum = test: Assay B-12: Effect against Septoria nodorum/wheat (Septoria leaf spot on wheat); settings: Septoria nodorum on wheat cv. Arina; 0.02% active substance, spray
Description: Assay B-12: Effect Against Septoria nodorum/Wheat (Septoria Leaf Spot on Wheat) 1 week old wheat plants cv. Arina are treated with a formulated test compound (0.02% active substance) in a spray chamber. One day after application wheat plants are inoculated by spraying a spore suspension (5×10^5 conidia/ml) on the test plants. After an incubation period of 1 day at 20° C. and 95% r.h. plants are kept for 10 days at 20° C. and 60% r.h. in a greenhouse. The disease incidence is assessed 11 days after inoculation.

Botrytis cinerea [2] = test: Assay B-8: Effect against Botrytis cinerea/tomato (Botrytis on tomatoes); settings: Botrytis cinerea on tomato cv. Roter Gnom; 0.02% active substance, spray
Description: Assay B-8: Effect Against Botrytis cinerea/Tomato (Botrytis on Tomatoes) 4 week old tomato plants cv. Roter Gnom are treated with the formulated testcompound 0.02% active substance) in a spray chamber. Two days after application tomato plants are inoculated by spraying a spore suspension (1×10^5 conidia/ml) on the test plants. After an incubation period of 4 days at 20° C. and 95% r. h. in a greenhouse the disease incidence is assessed.

Botrytis cinerea [3] = test: Assay B-7: Botrytis cinerea/grape (Botrytis on grapes); settings: Botrytis cinerea on grape seedlings cv. Gutedel; 0.02% active substance, spray
Description: Assay B-7: Botrytis cinerea/Grape (Botrytis on Grapes) 5 week old grape seedlings cv. Gutedel are treated with the formulated testcompound (0.02% active substance) in a spray chamber. Two days after application grape plants are inoculated by spraying a spore suspension (1×10^6 conidia/ml) on the test plants. After an incubation period of 4 days at 21° C. and 95% r. h. in a greenhouse the disease incidence is assessed.

SMILES	B10 activity [1]	B12 activity (Septoria nodorum)	B8 activity (Botrytis cinerea [2])	B7 activity (Botrytis cinerea [3])
CS(=O)(=O)O.NCCCNc1cc(-c2ccnc(Nc3cccc(Cl)c3)n2)ccn1 [Compound 48]	+ (the activity observed in the corresponding test system is 70% or more)	+ (the activity observed in the corresponding test system is 70% or more)	+ (the activity observed in the corresponding test system is 70% or more)	–
NCCCNc1cc(-c2ccnc(Nc3cccc(Cl)c3)n2)ccn1 [Compound 42]	+ (the activity observed in the corresponding test system is 70% or more)	+ (the activity observed in the corresponding test system is 70% or more)	+ (the activity observed in the corresponding test system is 70% or more)	–
CCCCC(=O)Nc1cc(-c2ccnc(Nc3cccc(Cl)c3)n2)ccn1 [Compound 62]	+ (the activity observed in the corresponding test system is 70% or more)	+ (the activity observed in the corresponding test system is 70% or more)	–	–
Clc1cccc(Nc2nccc(-c3ccnc(NCCc4ccccn4)c3)n2)c1 [Compound 90]	+ (the activity observed in the corresponding test system is 70% or more)	–	+ (the activity observed in the corresponding test system is 70% or more)	–
COCN(C)c1cc(-c2ccnc(Nc3cccc(Cl)c3)n2)ccn1 [Compound 91]	+ (the activity observed in the corresponding test system is 70% or more)	+ (the activity observed in the corresponding test system is 70% or more)	–	–
CCCC(CO)Nc1cc(-c2ccnc(Nc3cccc(Cl)c3)n2)ccn1 (stereo not shown) [Compound 27]	+ (the activity observed in the corresponding test system is 70% or more)	+ (the activity observed in the corresponding test system is 70% or more)	+ (the activity observed in the corresponding test system is 70% or more)	+ (the activity observed in the corresponding test system is 70% or more)
CCC(COC(C)=O)Nc1cc(-c2ccnc(Nc3cccc(Cl)c3)n2)ccn1 (stereo not shown) [Compound 51]	+ (the activity observed in the corresponding test system is 70% or more)	+ (the activity observed in the corresponding test system is 70% or more)	–	–
CCC(=O)OCCCNc1cc(-c2ccnc(Nc3cccc(Cl)c3)n2)ccn1 [Compound 106]	+ (the activity observed in the corresponding test system is 70% or more)	+ (the activity observed in the corresponding test system is 70% or more)	+ (the activity observed in the corresponding test system is 70% or more)	–
Clc1cccc(Nc2nccc(-c3ccnc(NC4CCOC4)c3)n2)c1 (stereo not shown) [Compound 2]	+ (the activity observed in the corresponding test system is 70% or more)	+ (the activity observed in the corresponding test system is 70% or more)	–	–
CN(C)C=Nc1cc(-c2ccnc(Nc3cccc(Cl)c3)n2)ccn1 [Compound 97]	+ (the activity observed in the corresponding test system is 70% or more)	+ (the activity observed in the corresponding test system is 70% or more)	+ (the activity observed in the corresponding test system is 70% or more)	–
CC(CCc1ccccn1)Nc1cc(-c2ccnc(Nc3cccc(Cl)c3)n2)ccn1 (stereo not shown) [Compound 71]	+ (the activity observed in the corresponding test system is 70% or more)	+ (the activity observed in the corresponding test system is 70% or more)	–	–
NCCNc1cc(-c2ccnc(Nc3cccc(Cl)c3)n2)ccn1 [Compound 1]	+ (the activity observed in the corresponding test system is 70% or more)	–	–	–
CCN(COC)c1cc(-c2ccnc(Nc3cccc(Cl)c3)n2)ccn1 [Compound 98]	+ (the activity observed in the corresponding test system is 70% or more)	–	–	–
CC(=O)OCCNc1cc(-c2ccnc(Nc3cccc(Cl)c3)n2)ccn1 [Compound 52]	+ (the activity observed in the corresponding test system is 70% or more)	+ (the activity observed in the corresponding test system is 70% or more)	–	–
C[S+]([O-])CCNc1cc(-c2ccnc(Nc3cccc(Cl)c3)n2)ccn1 (stereo not shown) [Compound 74]	–	+ (the activity observed in the corresponding test system is 70% or more)	–	–
Clc1cccc(Nc2nccc(-c3ccnc(NCC4CCOC4)c3)n2)c1 (stereo not shown) [Compound 84]	+ (the activity observed in the corresponding test system is 70% or more)	+ (the activity observed in the corresponding test system is 70% or more)	+ (the activity observed in the corresponding test system is 70% or more)	–
CC(O)CNc1cc(-c2ccnc(Nc3cccc(Cl)c3)n2)ccn1 (stereo not shown) [Compound 76]	+ (the activity observed in the corresponding test system is 70% or more)	+ (the activity observed in the corresponding test system is 70% or more)	–	–
CO[Si](CCCNc1cc(-c2ccnc(Nc3cccc(Cl)c3)n2)ccn1)(OC)OC [Compound 100]	–	–	+ (the activity observed in the corresponding test system is 70% or more)	–
Clc1cccc(Nc2nccc(-c3ccnc(NCc4ccccn4)c3)n2)c1 [Compound 79]	+ (the activity observed in the corresponding test system is 70% or more)	–	+ (the activity observed in the corresponding test system is 70% or more)	–
O=C(Nc1cc(-c2ccnc(Nc3cccc(Cl)c3)n2)ccn1)C(F)(F)C(F)(F)F [Compound 93]	+ (the activity observed in the corresponding test system is 70% or more)	–	+ (the activity observed in the corresponding test system is 70% or more)	+ (the activity observed in the corresponding test system is 70% or more)
CC(CCN(C)C)Nc1cc(-c2ccnc(Nc3cccc(Cl)c3)n2)ccn1 (stereo not shown) [Compound 19]	–	–	+ (the activity observed in the corresponding test system is 70% or more)	–
Clc1cccc(Nc2nccc(-c3ccnc(NCCCOc4ncccn4)c3)n2)c1 [Compound 94]	+ (the activity observed in the corresponding test system is 70% or more)	–	+ (the activity observed in the corresponding test system is 70% or more)	–
CS(=O)(=O)O.Clc1cccc(Nc2nccc(-c3ccnc(NCCCn4ccnc4)c3)n2)c1 [Compound 49]	+ (the activity observed in the corresponding test system is 70% or more)	+ (the activity observed in the corresponding test system is 70% or more)	+ (the activity observed in the corresponding test system is 70% or more)	+ (the activity observed in the corresponding test system is 70% or more)
Clc1cccc(Nc2nccc(-c3ccnc(NCc4ccco4)c3)n2)c1 [Compound 78]	–	–	+ (the activity observed in the corresponding test system is 70% or more)	–
CC(CCn1ccnc1)Nc1cc(-c2ccnc(Nc3cccc(Cl)c3)n2)ccn1 (stereo not shown) [Compound 16]	+ (the activity observed in the corresponding test system is 70% or more)	+ (the activity observed in the corresponding test system is 70% or more)	+ (the activity observed in the corresponding test system is 70% or more)	–
O=C(O)CNc1cc(-c2ccnc(Nc3cccc(Cl)c3)n2)ccn1 [Compound 3]	+ (the activity observed in the corresponding test system is 70% or more)	+ (the activity observed in the corresponding test system is 70% or more)	+ (the activity observed in the corresponding test system is 70% or more)	–
Clc1cccc(Nc2nccc(-c3ccnc(NCc4cccnc4)c3)n2)c1 [Compound 102]	+ (the activity observed in the corresponding test system is 70% or more)	–	+ (the activity observed in the corresponding test system is 70% or more)	–
CCCC(COC(C)=O)Nc1cc(-c2ccnc(Nc3cccc(Cl)c3)n2)ccn1 (stereo not shown) [Compound 53]	–	–	+ (the activity observed in the corresponding test system is 70% or more)	–
CC(CCNc1cc(-c2ccnc(Nc3cccc(Cl)c3)n2)ccn1)n1ccnc1 (stereo not shown) [Compound 36]	+ (the activity observed in the corresponding test system is 70% or more)	–	–	–
COC(CNc1cc(-c2ccnc(Nc3cccc(Cl)c3)n2)ccn1)OC [Compound 87]	+ (the activity observed in the corresponding test system is 70% or more)	+ (the activity observed in the corresponding test system is 70% or more)	–	–
